Reference: ChEMBL document CHEMBL1133645, “(S)-4-Methyl-2-(methylamino)pentanoic acid [4, 4-bis(4-fluorophenyl)butyl]amide hydrochloride, a novel calcium channel antagonist, is efficacious in several animal models of pain” (J Med Chem, 2000)

Assays:
[1] = Electrophysiology tested by the voltage clamp assay using superior cervical ganglion potassium neuron (SCGK); assay type: functional, tissue-based; settings: Rattus norvegicus
Rattus norvegicus [2] = species: Rattus norvegicus; experiment: Intrathecal bolus injection of 12.5-100 microg of dose resulting in 50% reduction in the amount of foot withdraw responding to repeated mechanical stimuli
Rattus norvegicus [3] = experiment: Dose given at 15 and 30 mg/kg over 10 min resulting in 50% reduction in the number of flinches per minute when administarted intravenously.; settings: iv
[4] = target: Voltage-gated L-type calcium channel (Rattus norvegicus, UniProt P22002+Q02485+P27732); experiment: L-type calcium channel blockade in A10 smooth muscle cells by Oregon Green 488 Bapta-1 dye; assay type: functional, cell-based
[5] = Electrophysiology tested by the voltage clamp assay using superior cervical ganglion sodium neuron (SCGNa); assay type: functional, tissue-based; settings: Rattus norvegicus
[6] = Electrophysiology tested by the voltage clamp assay using superior cervical ganglion calcium neuron (SCGCa); assay type: functional, tissue-based; settings: Rattus norvegicus
[7] = Intravenous administration of dose resulting in 50% reduction in the number of writhes in male CF-1 mice.; assay type: functional; settings: Mus musculus
Mus musculus = experiment: Intravenous administration of dose required to prevent clonic seizures and tonic extension seizure of forelimbs and hindlimbs; assay type: functional; settings: Hindlimb
Rattus norvegicus [8] = experiment: Oral administration of dose resulting in 50% reduction in the number of flinches per minute

IC50 [1]: 9.9 µM
IC50 [4]: 0.4 µM
IC50 [5]: 5.1 µM
IC50 [6]: 1.3 µM
Compound: CN[C@@H](CC(C)C)C(=O)NCCCC(c1ccc(F)cc1)c1ccc(F)cc1.Cl
ED50 (Rattus norvegicus [2]): 23 µg
ED50 (Rattus norvegicus [3]): 16 mg/kg
ED50 [7]: 4.46 mg/kg
ED50 (Mus musculus): 4.05 mg/kg
ED50 (Rattus norvegicus [8]): 87 mg/kg
